How the values were obtained:
Format in all cases: in vivo
Conditions in all cases: post-emergence spray, evaluated after 13 days
[1] = test system: Amaranthus retroflexus (AMARE); assay: Post-emergence efficacy, Amaranthus retroflexus
Protocol: (§1) B1 Post-Emergence Efficacy
(§2) Seeds of a variety of test species are shown in standard soil in pots:—Solanum nigrum (SOLNI), Amaranthus retroflexus (AMARE), Setaria faberi (SETFA), Echinochloa crus-galli (ECHCG), Ipomoea hederacea (IPOHE), Lolium perenne (LOLPE). After 8 days cultivation (post-emergence) under controlled conditions in a glasshouse (at 24/16° C., day/night; 14 hours light; 65% humidity), the plants are sprayed with an aqueous spray solution derived from the formulation of the technical active ingredient in acetone/water (50:50) solution containing 0.5% Tween 20 (polyoxyethylene sorbitan monolaurate, CAS RN 9005-64-5). Compounds are applied at 1000 and 62.5 g/ha. The test plants are then grown in a glasshouse under controlled conditions in a glasshouse (at 24/16° C., day/night; 14 hours light; 65% humidity) and watered twice daily. After 13 days, the test is evaluated for the percentage damage caused to the plant. The biological activities are assessed on a five point scale (5=80-100%; 4=60-79%; 3=40-59%; 2=20-39%; 1=0-19%).

[2] = test system: Solanum nigrum (SOLNI); assay: Post-emergence efficacy, Solanum nigrum
Protocol: as §1, §2

[3] = test system: Setaria faberi (SETFA); assay: Post-emergence efficacy, Setaria faberi
Protocol: as §1, §2

[4] = test system: Lolium perenne (LOLPE); assay: Post-emergence efficacy, Lolium perenne
Protocol: as §1, §2

[5] = test system: Echinochloa crus-galli (ECHCG); assay: Post-emergence efficacy, Echinochloa crus-galli
Protocol: as §1, §2

[6] = test system: Ipomoea hederacea (IPOHE); assay: Post-emergence efficacy, Ipomoea hederacea
Protocol: as §1, §2

| SMILES | AMARE percentage damage caused to the plant (five point scale) ([1]; 62.5 g/ha) | AMARE percentage damage caused to the plant (five point scale) ([1]; 1000 g/ha) | SOLNI percentage damage caused to the plant (five point scale) ([2]; 62.5 g/ha) | SOLNI percentage damage caused to the plant (five point scale) ([2]; 1000 g/ha) | SETFA percentage damage caused to the plant (five point scale) ([3]; 62.5 g/ha) | SETFA percentage damage caused to the plant (five point scale) ([3]; 1000 g/ha) | LOLPE percentage damage caused to the plant (five point scale) ([4]; 62.5 g/ha) | LOLPE percentage damage caused to the plant (five point scale) ([4]; 1000 g/ha) | ECHCG percentage damage caused to the plant (five point scale) ([5]; 62.5 g/ha) | ECHCG percentage damage caused to the plant (five point scale) ([5]; 1000 g/ha) | IPOHE percentage damage caused to the plant (five point scale) ([6]; 62.5 g/ha) | IPOHE percentage damage caused to the plant (five point scale) ([6]; 1000 g/ha) |
| --- | --- | --- | --- | --- | --- | --- | --- | --- | --- | --- | --- | --- |
| Cc1csc(COc2c(Cl)ccc(F)c2-c2c(O)c(C)nn(C)c2=O)n1 [Compound 1.34] | 4 (4=60-79%) | 5 (5=80-100%) | 5 (5=80-100%) | 5 (5=80-100%) | 4 (4=60-79%) | 5 (5=80-100%) | 3 (3=40-59%) | 4 (4=60-79%) | 4 (4=60-79%) | 5 (5=80-100%) | 5 (5=80-100%) | 5 (5=80-100%) |
| Cc1nn(C)c(=O)c(-c2c(Cl)ccc(Cl)c2OCc2ccncc2)c1O [Compound 1.03] | 1 (1=0-19%) | 4 (4=60-79%) | 4 (4=60-79%) | 5 (5=80-100%) | 1 (1=0-19%) | 5 (5=80-100%) | 1 (1=0-19%) | 4 (4=60-79%) | 2 (2=20-39%) | 5 (5=80-100%) | 4 (4=60-79%) | 4 (4=60-79%) |
| Cc1nn(C)c(=O)c(-c2c(Cl)c(Cl)cc(Cl)c2OCc2cnc(Cl)s2)c1O [Compound 5.01] | 3 (3=40-59%) | 5 (5=80-100%) | 5 (5=80-100%) | 5 (5=80-100%) | 2 (2=20-39%) | 5 (5=80-100%) | 2 (2=20-39%) | 5 (5=80-100%) | 2 (2=20-39%) | 5 (5=80-100%) | 5 (5=80-100%) | 5 (5=80-100%) |
| Cc1cnc(COc2c(Cl)ccc(Cl)c2-c2c(O)c(C)nn(C)c2=O)cn1 [Compound 1.21] | 2 (2=20-39%) | 3 (3=40-59%) | 3 (3=40-59%) | 4 (4=60-79%) | 3 (3=40-59%) | 5 (5=80-100%) | 1 (1=0-19%) | 2 (2=20-39%) | 1 (1=0-19%) | 4 (4=60-79%) | 4 (4=60-79%) | 5 (5=80-100%) |
| Cc1nn(C)c(=O)c(-c2c(F)ccc(Cl)c2OCc2nccs2)c1O [Compound 1.25] | 5 (5=80-100%) | 5 (5=80-100%) | 5 (5=80-100%) | 5 (5=80-100%) | 5 (5=80-100%) | 5 (5=80-100%) | 4 (4=60-79%) | 5 (5=80-100%) | 4 (4=60-79%) | 5 (5=80-100%) | 5 (5=80-100%) | 5 (5=80-100%) |
